Legend:
[1] = molecular target: COX-2 (Homo sapiens, UniProt P35354); experiment: colorimetric COX Inhibitor screening Assay (peroxidase component, oxidized TMPD at 590 nm); assay type: biochemical; details: at 50 μM, the highest concentration tested
Description: Human cyclooxygenase inhibitory activity was determined by a colorimetric COX Inhibitor screening Assay which measures the peroxidase component of the cyclooxygenases, monitoring the appearance of oxidized N,N,N′,N′-tetramethyl-p-phenylenediamine (TMPD) at 590 nm.

[2] = tested on: GFAP; experiment: astroglial activation in LPS-treated mice, GFAP immunoreactivity and immunoblotting; assay type: in vivo
Description: The protein concentration in the supernatant was spectrophotometrically determined by Bradford's protein assay (Bradford, 1976). […] Proteins (25 μg/lane) and prestained standards (BioRad Laboratories, Hercules, CA, USA) were loaded on 7% or 12% SDS precast polyacrylamide gels (BioRad Laboratories). After electrophoresis, the resolved proteins were transferred from the gel to nitrocellulose membranes. A blotting buffer [20 mMTris/150 mM glycine, pH=8.0, 20% (v/v) methanol] was used for gel and membrane saturation and blotting. […] Bands were visualized by chemiluminescence detection (Invitrogen, Milan, Italy). The β-actin level was used as a protein loading control. For tissue analysis, obtained bands were normalized to the level of β-actin performed for each cerebral area tested. For cell cultures the bands were normalized to the β-actin level in each experimental condition. […] VM in all the Figures) once a day for 10 days. […] On the seventh day, mice were anesthetized with tribromoethanol (250 mg/Kg, i.p.) and positioned in a stereotactic apparatus (Kopf Instruments, Tujunga, CA, USA). […] Immunohistochemistry was performed following a standard avidin-biotin complex procedure. […]

[3] = molecular target: COX-1 (Mus musculus (Mouse), UniProt P22437); experiment: COX-1 expression in brain regions of LPS-treated mice, immunoblotting; assay type: in vivo; details: for COX-1 expression reduction (%): LPS-treated mice, mofezolac 6 mg/kg i.p.
Description: Substantia nigra pars compacta (SNpc), Hippocampus, Frontal lobe and Caudate from mice brains were minced in ice-cold PBS, washed and then homogenized in a buffer containing lysis buffer (50 mM Tris pH 8, 0.02 g/mL NaCl, 0.2% SDS, 1% Triton-X, 4 U/ml aprotinin, 2 mM leupeptin, 100 mM phenylmethanesulfonyl fluoride).
The tissue and cell culture lysates were vortexed for 15-20 s and, then, centrifuged at 12,800×g for 20 min. The protein concentration in the supernatant was spectrophotometrically determined by Bradford's protein assay (Bradford, 1976). Protein samples were diluted with sample buffer (0.5 M Tris-HCl pH=6.8, 10% glycerol, 10% (w/v) SDS, 5% 2-mercaptoethanol, 0.05% (w/v) bromophenol blue) and then boiled for 3 min. Proteins (25 μg/lane) and prestained standards (BioRad Laboratories, Hercules, CA, USA) were loaded on 7% or 12% SDS precast polyacrylamide gels (BioRad Laboratories).
After electrophoresis, the resolved proteins were transferred from the gel to nitrocellulose membranes. A blotting buffer [20 mMTris/150 mM glycine, pH=8.0, 20% (v/v) methanol] was used for gel and membrane saturation and blotting. Then, membranes were incubated in the dark with 1 μg/mL mouse monoclonal antibody (MoAb) anti-COX-1 and rabbit polyclonal Ab anti-COX-2 (1:1000) (both from AbCam, Cambridge, UK), rabbit polyclonal Ab anti p-IkB-α (1:200), mouse polyclonal Ab anti β-actin (1:500) (all from Santa Cruz Biotechnology), mouse MoAb anti-glial fibrillary acidic protein (GFAP) (1:200) and mouse mAb anti-ionized calcium-binding adapter molecule-1 (Iba-1) (1:200) (both from Merck Millipore) overnight at 4° C. The membranes were washed with 0.1% Tween 20-PBS (for 20 min, 3 times) and then incubated with the secondary antibody diluted 1:2000 for 60 min. Bands were visualized by chemiluminescence detection (Invitrogen, Milan, Italy). The β-actin level was used as a protein loading control. For tissue analysis, obtained bands were normalized to the level of β-actin performed for each cerebral area tested. For cell cultures the bands were normalized to the β-actin level in each experimental condition.
On the seventh day, mice were anesthetized with tribromoethanol (250 mg/Kg, i.p.) and positioned in a stereotactic apparatus (Kopf Instruments, Tujunga, CA, USA). […] Sterotaxic injections coordinates were: 2.3 mm dorsal/ventral, 1.0 mm lateral, and 0.5 mm anterior/posterior from the bregma.

[4] = tested on: BV2 microglial cells; experiment: BV2 microglial cell viability, MTT reduction assay; assay type: cell-based; details: 24 h, P6 0.5 and 1 μM, mofezolac 0.1 and 0.5 μM, alone or with LPS
Description: Cells were then incubated for different times at 37° C. with LPS, as pro-inflammatory stimulus. Experiments included cells grown in medium alone (control).
Cell viability of microglial cells was quantified using the MTT reduction assay. The cells (8×10^3/well) were grown in 96-well plates (Becton Dickinson Labware) in complete medium and treated with different concentration of COX inhibitors, in presence or absence of LPS. Untreated cells were used as a control. A PBS 1× solution of MTT (5 mg/mL) was prepared and added to the cell medium at a final concentration of 0.5 mg/mL. Cells were incubated for 4 h at 37° C. and 5% CO2 to allow the MTT metabolism. The formazan crystals formed (from MTT) into the cells were solubilized with DMSO (Sigma-Aldrich). The levels of MTT formazan were determined measuring the optical density at λ=560 nm and subtracting the background (λ=670 nm) with a Victor Multiplate Reader (Wallac). Optical density was directly correlated to cell quantity.

[5] = tested on: Caco-2 cells; experiment: Caco-2 monolayer efflux assay, Apparent Permeability (Papp), with or without GLUT-1 inhibitor phloretin; assay type: in vitro ADME, Human; details: compound alone
[6] = as above; assay type: in vitro ADME, Human; details: human, compound alone

Chain of COX-2 (P35354 18-604 limits assumed): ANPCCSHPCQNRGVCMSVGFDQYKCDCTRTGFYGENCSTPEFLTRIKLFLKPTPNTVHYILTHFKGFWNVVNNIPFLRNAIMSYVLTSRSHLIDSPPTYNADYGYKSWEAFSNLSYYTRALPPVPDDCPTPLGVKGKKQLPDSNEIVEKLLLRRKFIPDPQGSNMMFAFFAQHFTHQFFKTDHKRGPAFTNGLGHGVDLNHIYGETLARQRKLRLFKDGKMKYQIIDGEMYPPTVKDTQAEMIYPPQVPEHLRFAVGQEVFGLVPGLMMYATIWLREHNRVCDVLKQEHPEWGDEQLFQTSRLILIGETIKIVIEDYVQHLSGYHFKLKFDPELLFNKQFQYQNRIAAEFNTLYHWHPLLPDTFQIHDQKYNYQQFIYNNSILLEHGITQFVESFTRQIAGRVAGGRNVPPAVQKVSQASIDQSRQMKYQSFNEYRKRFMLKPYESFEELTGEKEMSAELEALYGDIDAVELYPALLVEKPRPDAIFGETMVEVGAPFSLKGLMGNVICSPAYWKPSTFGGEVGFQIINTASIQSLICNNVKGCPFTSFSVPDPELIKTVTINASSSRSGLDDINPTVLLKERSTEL

In the case of `COc1ccc(-c2noc(CC(=O)O)c2-c2ccc(OC)cc2)cc1` [mofezolac, 2-(3,4-bis(4-methoxyphenyl)isoxazol-5-yl)acetic acid], the inhibition at 50 µM [1] is reported as 38%, the GFAP levels ([2]; immunoblotting, mofezolac + LPS vs LPS alone) is reported as “significantly reduced” and the GFAP immunoreactive cells ([2]; immunohistochemistry, LPS-treated mice, mofezolac 6 mg/kg i.p., all the tested brain areas) is reported as “reduced the presence of GFAP immunoreactive cells”. The “COX-1 expression reduction (%)” value ([3]; Caudate) was 95%, the “COX-1 expression reduction (%)” value ([3]; Frontal lobe) was 94% and the “COX-1 expression reduction (%)” value ([3]; Hippocampus) was 82%. The COX-1 expression ([3]; LPS challenged mice, all brain areas tested) was “significantly reduction of COX-1 expression”, the “COX-1 expression reduction (%)” value ([3]; Substantia nigra) was 89% and the cell toxicity [4] was “No cell toxicity”. For the same compound, the “Papp A→B” value [5] was 41.4 ×10⁻⁶ cm/s, the “Papp B→A” value [5] was 46.1 ×10⁻⁶ cm/s and the Papp B→A [6] was 46.1 ×10⁻⁶ cm/s.
